According to PubChem BioAssay AID328 (DTP/NCI, 2004):
Several values for one entry are separate records, joined by “and”; a condition that tells them apart may be missing. Equal entries are not always repeated. Toxic doses and inconclusive results are not listed.

System: BDF1 mice, P388 leukemia ip, median survival T/C
Experiment: NCI In Vivo Anticancer Drug Screen. Data for tumor model P388 Leukemia (intraperitoneal) in B6D2F1 (BDF1) mice
Details: endpoint: median survival time, higher = longer survival
Method in brief: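 T/C = treated-group survival ÷ vehicle-control survival; tumour transplanted into mice before dosing.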

[1] = dose: 100.0 mg/kg/injection, schedule: Q01DX009 (ip), vehicle: saline with Tween-80
[2] = dose: 200.0 mg/kg/injection, schedule: Q01DX009 (ip), vehicle: saline with Tween-80
[3] = dose: 100.0 mg/kg/injection, schedule: Q04DX003 (ip), vehicle: Klucel (hydroxypropylcellulose) (HPC)
[4] = dose: 200.0 mg/kg/injection, schedule: Q04DX003 (ip), vehicle: Klucel (hydroxypropylcellulose) (HPC)
[5] = dose: 400.0 mg/kg/injection, schedule: Q04DX003 (ip), vehicle: Klucel (hydroxypropylcellulose) (HPC)
[6] = dose: 50.0 mg/kg/injection, schedule: Q01DX009 (ip), vehicle: saline with Tween-80
[7] = dose: 25.0 mg/kg/injection, schedule: Q01DX009 (ip), vehicle: Klucel (hydroxypropylcellulose) (HPC)
[8] = dose: 25.0 mg/kg/injection, schedule: Q01DX009 (ip), vehicle: saline with Tween-80
[9] = dose: 37.5 mg/kg/injection, schedule: Q04DX003 (ip), vehicle: Klucel (hydroxypropylcellulose) (HPC)
[10] = dose: 75.0 mg/kg/injection, schedule: Q04DX003 (ip), vehicle: Klucel (hydroxypropylcellulose) (HPC)
[11] = dose: 100.0 mg/kg/injection, schedule: Q04DX003 (ip), vehicle: saline with Tween-80
[12] = dose: 200.0 mg/kg/injection, schedule: Q04DX003 (ip), vehicle: saline with Tween-80
[13] = dose: 400.0 mg/kg/injection, schedule: Q04DX003 (ip), vehicle: saline with Tween-80
[14] = dose: 400.0 mg/kg/injection, schedule: Q01DX009 (ip), vehicle: saline with Tween-80

## Cc1cc(C)c(C)c(C(O)(C(=O)O)c2ccccc2)c1 (stereo not given)
[1]
  T/C: 87 % of control
[2]
  T/C: 104 % of control

## COC(=O)/C=C1/OC(=O)CC1(C)C
dose: 100.0 mg/kg/injection, schedule: Q01DX001 (ip), vehicle: saline with Tween-80
  T/C: 105 % of control
dose: 200.0 mg/kg/injection, schedule: Q01DX001 (ip), vehicle: saline with Tween-80
  T/C: 95 % of control
dose: 400.0 mg/kg/injection, schedule: Q01DX001 (ip), vehicle: saline with Tween-80
  T/C: 100 % of control

## CCSc1nc(C(OC)OC)c(Cc2ccccc2)c(=O)[nH]1
[3]
  T/C: 90 % of control
[4]
  T/C: 90 % of control
[5]
  T/C: 90 % of control

## O=c1cc(CCl)[nH]nc1CCl
dose: 14.5 mg/kg/injection, schedule: Q04DX003 (ip), vehicle: saline with Tween-80
  T/C: 166 % of control
dose: 22.0 mg/kg/injection, schedule: Q04DX003 (ip), vehicle: saline with Tween-80
  T/C: 159 % of control
dose: 33.0 mg/kg/injection, schedule: Q04DX003 (ip), vehicle: saline with Tween-80
  T/C: 151 % of control
dose: 75.0 mg/kg/injection, schedule: Q04DX003 (ip), vehicle: saline with Tween-80
  T/C: 98 % of control

## CCOC(=O)/C=C(\C)Sc1cc(O)c2ccccc2c1O
dose: 3.13 mg/kg/injection, schedule: Q01DX009 (ip), vehicle: saline with Tween-80
  T/C: 102 % of control
dose: 6.25 mg/kg/injection, schedule: Q01DX009 (ip), vehicle: saline with Tween-80
  T/C: 103 % of control

## CC1=CC=CC2=NC(=O)CCN12
[6]
  T/C: 94 % of control
[1]
  T/C: 94 % of control
[2]
  T/C: 100 % of control

## CC(C)CCNc1ncnc2[nH]ncc12
dose: 5.5 mg/kg/injection, schedule: Q01DX009 (ip), vehicle: Klucel (hydroxypropylcellulose) (HPC)
  T/C: 95 % of control
dose: 8.2 mg/kg/injection, schedule: Q01DX009 (ip), vehicle: Klucel (hydroxypropylcellulose) (HPC)
  T/C: 100 % of control
dose: 18.75 mg/kg/injection, schedule: Q04DX003 (ip), vehicle: Klucel (hydroxypropylcellulose) (HPC)
  T/C: 86 % of control
[7]
  T/C: 90 % of control
[8]
  T/C: 90 % of control
[9]
  T/C: 104 % of control
[6]
  T/C: 90 % of control
[10]
  T/C: 86 % of control

## CN(C)[C@@H]1C(=O)C(C(N)=O)=C(O)[C@]2(O)C(=O)C3C(=O)c4c(O)ccc(Cl)c4[C@](C)(O)[C@H]3C[C@@H]12 (stereo not given in full)
dose: 33.0 mg/kg/injection, schedule: Q04DX003 (ip), vehicle: saline sonified
  T/C: 115 % of control

## COC(=O)c1cc(=O)n(-c2cccc(F)c2)c(SC)n1
[3]
  T/C: 114 % of control
[4]
  T/C: 114 % of control

## CC1(C)N=C(N)N=C(N)N1c1ccc(C(N)=O)cc1
dose: 50.0 mg/kg/injection, schedule: Q01DX005 (ip), vehicle: Klucel (hydroxypropylcellulose) (HPC)
  T/C: 109 % of control
dose: 100.0 mg/kg/injection, schedule: Q01DX005 (ip), vehicle: Klucel (hydroxypropylcellulose) (HPC)
  T/C: 112 % of control

## COc1cccc(N)c1N
dose: 50.0 mg/kg/injection, schedule: Q01DX009 (ip), vehicle: suspension in saline
  T/C: 124 % of control
dose: 200.0 mg/kg/injection, schedule: Q01DX009 (ip), vehicle: suspension in saline
  T/C: 98 % of control

## O=[N+]([O-])c1ccc(S(=O)c2ccccc2)c2c1no[n+]2[O-] (stereo not given)
dose: 22.5 mg/kg/injection, schedule: Q01DX009 (ip), vehicle: saline with Tween-80
  T/C: 92 % of control
dose: 45.0 mg/kg/injection, schedule: Q01DX009 (ip), vehicle: saline with Tween-80
  T/C: 93 % of control

## Nc1nc(=S)c2[nH]cnc2[nH]1
dose: 0.12 mg/kg/injection, schedule: Q01DX009 (ip), vehicle: acetone
  T/C: 91 % of control
dose: 0.25 mg/kg/injection, schedule: Q01DX009 (ip), vehicle: acetone
  T/C: 100 % of control
dose: 0.5 mg/kg/injection, schedule: Q01DX009 (ip), vehicle: acetone
  T/C: 104 % of control
dose: 0.63 mg/kg/injection, schedule: Q01DX010 (ip), vehicle: saline
  T/C: 122 % of control
dose: 1.0 mg/kg/injection, schedule: Q01DX009 (ip), vehicle: acetone
  T/C: 112 % of control
dose: 1.25 mg/kg/injection, schedule: Q01DX010 (ip), vehicle: other
  T/C: 115 % of control
dose: 1.25 mg/kg/injection, schedule: Q01DX010 (ip), vehicle: saline
  T/C: 159 % of control
dose: 2.0 mg/kg/injection, schedule: Q01DX009 (ip), vehicle: acetone
  T/C: 95 % of control
dose: 2.5 mg/kg/injection, schedule: Q01DX010 (ip), vehicle: other
  T/C: 111 % of control
dose: 2.5 mg/kg/injection, schedule: Q01DX010 (ip), vehicle: saline
  T/C: 104 % of control
dose: 5.0 mg/kg/injection, schedule: Q01DX010 (ip), vehicle: other
  T/C: 90 % of control and 100 % of control
dose: 5.0 mg/kg/injection, schedule: Q01DX010 (ip), vehicle: saline
  T/C: 100 % of control

## Cc1c(C)c2c(c(C)c1O)CCC(C)(CCCC(C)CCCC(C)CCCC(C)C)O2 (stereo not given)
dose: 30.0 IU/animal/injection, schedule: Q04DX003 (ip), vehicle: olive oil, sesame oil, peanut oil
  T/C: 100 % of control
dose: 85.0 IU/animal/injection, schedule: Q04DX003 (ip), vehicle: olive oil, sesame oil, peanut oil
  T/C: 100 % of control

## CCCCC(CC)C1NCCO1 (stereo not given)
[6]
  T/C: 103 % of control
[11]
  T/C: 110 % of control
[2]
  T/C: 92 % of control
[12]
  T/C: 115 % of control
[13]
  T/C: 115 % of control

## CCOC(=O)N1Cc2cc3ccccc3nc2C1CC(=O)O (stereo not given)
[3]
  T/C: 100 % of control
[4]
  T/C: 100 % of control
[5]
  T/C: 104 % of control

## C[C@@H]1CC2=CC(=O)CC[C@]2(C)[C@H]2CC[C@]3(C)[C@@H](O)CC[C@H]3[C@H]12
[1]
  T/C: 100 % of control
[11]
  T/C: 100 % of control
[2]
  T/C: 95 % of control
[12]
  T/C: 109 % of control
[14]
  T/C: 90 % of control
[13]
  T/C: 95 % of control

## Cc1ccc(-c2nc3sccn3c2/C=N/NS(=O)(=O)c2ccc(C)cc2)cc1
dose: 100.0 mg/kg/injection, schedule: Q01DX001 (ip), vehicle: Klucel (hydroxypropylcellulose) (HPC)
  T/C: 101 % of control
dose: 200.0 mg/kg/injection, schedule: Q01DX001 (ip), vehicle: Klucel (hydroxypropylcellulose) (HPC)
  T/C: 101 % of control
dose: 400.0 mg/kg/injection, schedule: Q01DX001 (ip), vehicle: Klucel (hydroxypropylcellulose) (HPC)
  T/C: 101 % of control

## c1ccc(-c2ncnc3c2Cc2ccccc2-3)cc1
[1]
  T/C: 104 % of control
[11]
  T/C: 100 % of control
[2]
  T/C: 104 % of control
[12]
  T/C: 100 % of control
[14]
  T/C: 91 % of control
[13]
  T/C: 109 % of control

## CCCCCCCCCC(=O)CCCCCCC
dose: 50.0 mg/kg/injection, schedule: Q01DX009 (ip), vehicle: other
  T/C: 100 % of control
dose: 100.0 mg/kg/injection, schedule: Q01DX009 (ip), vehicle: other
  T/C: 100 % of control
dose: 100.0 mg/kg/injection, schedule: Q04DX003 (ip), vehicle: other
  T/C: 100 % of control
dose: 118.0 mg/kg/injection, schedule: Q04DX003 (ip), vehicle: other
  T/C: 104 % of control
dose: 178.0 mg/kg/injection, schedule: Q04DX003 (ip), vehicle: other
  T/C: 109 % of control and 118 % of control
dose: 200.0 mg/kg/injection, schedule: Q01DX009 (ip), vehicle: other
  T/C: 104 % of control
dose: 266.0 mg/kg/injection, schedule: Q04DX003 (ip), vehicle: other
  T/C: 95 % of control
dose: 400.0 mg/kg/injection, schedule: Q01DX009 (ip), vehicle: other
  T/C: 95 % of control
dose: 400.0 mg/kg/injection, schedule: Q04DX003 (ip), vehicle: other
  T/C: 109 % of control and 118 % of control

## [O-][n+]1onc2ccc(Cl)cc21
dose: 12.5 mg/kg/injection, schedule: Q01DX009 (ip), vehicle: Klucel (hydroxypropylcellulose) (HPC)
  T/C: 100 % of control
[7]
  T/C: 100 % of control
[9]
  T/C: 95 % of control
dose: 50.0 mg/kg/injection, schedule: Q01DX009 (ip), vehicle: Klucel (hydroxypropylcellulose) (HPC)
  T/C: 95 % of control
[10]
  T/C: 117 % of control
dose: 150.0 mg/kg/injection, schedule: Q04DX003 (ip), vehicle: Klucel (hydroxypropylcellulose) (HPC)
  T/C: 86 % of control

## CCC(NC(N)=O)C(CC)NC(N)=O (stereo not given)
[8]
  T/C: 106 % of control
[6]
  T/C: 120 % of control and 123 % of control

## CCN(CC)CCOCCO
dose: 100.0 mg/kg/injection, schedule: Q04DX003 (ip), vehicle: saline
  T/C: 110 % of control
dose: 400.0 mg/kg/injection, schedule: Q04DX003 (ip), vehicle: saline
  T/C: 100 % of control
